Values of other authors, collected in patent US20190187141A1, “Biomarkers for Detection and Treatment of Mast Cell Activity-Associated Disorders” (Arete Discoveries, Inc., priority 2016, published 2019).
Counter-ions that a name gives are not always drawn.

Assays:
[1] = system: lymphocytes, macrophages, mast cells and dendritic cells
[2] = system: mast cells; conditions: in vitro
[3] = system: EAE
[4] = open label, 20 MS patients
[5] = system: mast cells
[6] = phase II study
[7] = phase II trial, 35 progressive MS patients
[8] = system: cultured mast cells; conditions: pannexin1 hemichannel dependent mechanism
[9] = system: mast cells; conditions: AD animal models; connexin 43 and pannexin1 hemichannel dependent

Compound: Cc1ccc(NC(=O)c2ccc(CN3CCN(C)CC3)cc2)cc1Nc1nccc(-c2cccnc2)n1 [Imatinib]
- secretion of pro-inflammatory cytokines IFN-γ, TNF-α, IL-1β and IL-17 and MMPs [1]: inhibiting
- anti-proliferative activity and immunomodulatory effects ([1]; lymphocytes, macrophages, mast cells and dendritic cells): exerts anti-proliferative activity and immunomodulatory effects

Compound: COC(=O)/C=C/C(=O)OC [dimethyl fumarate]
- apoptosis of mast cells [2]: induces apoptosis of mast cells in vitro

Compound: OCCOCCN1CCN(C(c2ccccc2)c2ccc(Cl)cc2)CC1 (centres unmarked) [hydroxyzine]
- degranulation of mast cells within the thalamus ([3]; EAE): inhibit
- progression and severity of EAE ([3]; in vivo): inhibit the progression and severity of EAE
- neurological outcome in MS patients [4]: stability or improvement neurologically

Compound: Cc1ccc(NC(=O)c2ccc(CN3CCN(C)CC3)cc2)cc1Nc1nc(-c2cccnc2)cs1 [masitinib]
- inhibition of survival, migration and activity of mast cells [5]: effectively inhibits the survival, migration and activity of mast cells
- cognitive decline in AD patients [6]: some benefit in slowing cognitive decline
- efficacy in progressive MS [7]: some efficacy

Compound: Amyloid beta (Aβ) peptide 25-35 (GSNKGAIIGLM; Amyloid-beta protein 42; UniProt P05067 696-706, looked up, fragment) [amyloid beta peptide fragment 25-35]
- degranulation of cultured mast cells [8]: causes rapid degranulation of cultured mast cells
- mast cell dye uptake and histamine release [9]: promotes both connexin 43 and pannexinl hemichannel dependent mast cell dye uptake and histamine release
